Measurements taken from patent publication US20190209501A1, “COMPOSITIONS AND METHODS OF USE OF BETA-HYDROXY-BETA-METHYLBUTYRATE (HMB) […] IN[…]” (Texas Tech University Office of Research Commercialization, priority 2018, published 2019).
Entries after “also recorded” stand apart in the source; their conditions may differ. Marks after values point to notes of the source that are not given here.

Legend:
[1] = Body composition, modified 4-component model (DXA + BIS), and body mass; format: in vivo, human; conditions: for FM (kg) Week 4 / FM (kg) Week 8: 4-component fat mass; for FFM (kg) Week 4 / FFM (kg) Week 8: 4-component fat-free mass; for BF % ES (d) / BM ES (d) / FFM ES (d) / FM ES (d): Cohen's d baseline vs week 8; for BM (kg) Week 4 / BM (kg) Week 8: body mass; for BF % Δ (%) / BM Δ (%) / FFM Δ (%) / FM Δ (%): change baseline to week 8 relative to baseline; for BM (kg) Δ / FFM (kg) Δ / FM (kg) Δ: week 8 minus baseline; for BF % Δ: week 8 minus baseline (absolute BF %)
Source text: At baseline and after 4 and 8 weeks of the intervention, participants completed two testing sessions: (1) a morning assessment conducted after an overnight fast for assessment of body composition, metabolism, vascular measures and subjective factors: and (2) an afternoon assessment of muscular performance, conducted in the non-fasted state. For morning assessments, participants reported to the laboratory after abstention from eating, drinking, exercising and utilizing caffeine or nicotine for ≥8 hours. Participants were interviewed to confirm adherence to these pre-assessment restrictions. The actual abstention from exercise was ≥14 hours due to the scheduling of exercise sessions. Participants reported to the laboratory wearing athletic clothing, and all metal and accessories were removed from the body prior to testing. Each participant voided her bladder and provided a urine sample. Urine samples were assessed for urine specific gravity (USG) using a digital refractometer (PA201X-093. Misco, Solon, Ohio. USA). Additionally, a standard urinary HCG test was performed to confirm that each participant was not pregnant. Finally, urinary samples were frozen at −80° C. for assessment of urinary HMB content after study unblinding. After voiding, each participant's body mass (BM) and height were determined via digital scale with stadiometer (Seca 769, Hamburg, Germany). Blood draws were performed at Texas Tech University Student Health Services after an overnight fast, and participants completed at-home saliva collections for assessment of the cortisol awakening response (CAR).
Body composition was assessed using a modified 4-component (4C) model (20, 21) produced from dual-energy x-ray absorptiometry (DXA) and bioimpedance spectroscopy (BIS) data. DXA scans were performed on a Lunar Prodigy scanner (General Electric, Boston, Mass., USA) with enCORE software (v. 16.2). The scanner was calibrated using a quality control block each morning prior to use, and positioning of participants was conducted according to manufacturer recommendations. Each participant was able to fit within the scanning dimensions. DXA bone mineral content (BMC) was divided by 0.9582 to yield an estimate of bone mineral (Mo) (22). Additionally, body volume (BV) was estimated from DXA lean soft tissue (LST), fat mass (FM) and BMC using the equation developed by Wilson et al. for General Electric DXA scanners (20):
BIS was utilized to obtain total body water (TBW) estimates. BIS utilizes Cole modeling (23) and mixture theories (24) to predict body fluids rather than regression equations used by other impedance methods (e.g. bioelectrical impedance analysis (25)). The BIS device used in the present study (SFB7, ImpediMed. Carlsbad, Calif., USA) employs 256 measurement frequencies ranging from 4 to 1,000 kHz. Each participant remained supine for ≥5 minutes immediately prior to assessment using the manufacturer-recommended hand-to-foot electrode arrangement. Duplicate assessments were performed, with the values averaged for analysis. Assessments were reviewed for quality assurance through visual inspection of Cole plots.
The 4C equation of Wang et al. was utilized for estimation of whole-body FM (26):
FFM was calculated as BM−FM, and BF % was calculated as (FM/BM)×100.

[2] = Questionnaires (Mood and Feelings, Pittsburgh Sleep Quality Index, Three-Factor Eating); format: in vivo, human; conditions: for MFQ Δ / MFQ Δ (%) / PSQI Δ / PSQI Δ (%) / TFEQ-CR Δ / TFEQ-CR Δ (%) / TFEQ-EE Δ / TFEQ-EE Δ (%) / TFEQ-UE Δ / TFEQ-UE Δ (%): change baseline to W 8
Source text: As part of the screening procedures, participants were interviewed using a lifestyle questionnaire for determination of baseline eating and exercise habits. Participants completed follow-up lifestyle questionnaires at subsequent research visits. Additionally, participants completed the Mood and Feelings Questionnaire (38), the Pittsburgh Sleep Quality Index (39), the Three-Factor Eating Questionnaire Revised 18-item version (40) and a menstrual cycle questionnaire at each morning laboratory assessment session.

[3] = ITT analysis, week 4, mean ± SE
[4] = ITT analysis, week 8, mean ± SE

For `CC(C)(O)CC(=O)O` [TRFHMB, β-hydroxy-β-methylbutyrate], the “Absolute effect size for BF % loss, TRFHMB relative to HMB only” value ([1]; 4 weeks) was 2 fold, the “BF % Week 4” value ([1]; ITT analysis, 4-component body fat percentage, week 4, mean ± SE) was 27.1 ± 1.7% and the “BF % Week 8” value ([1]; ITT analysis, 4-component body fat percentage, week 8, mean ± SE) was 27.3 ± 1.6%. For the same compound, the “FM (kg) Week 4” value [1, 3] was 17.5 ± 1.5 kg, the “FM (kg) Week 8” value [1, 4] was 17.5 ± 1.5 kg and the “FFM (kg) Week 4” value [1, 3] was 46.5 ± 1.4 kg. The “FFM (kg) Week 8” value [1, 4] was 46.2 ± 1.3 kg, the “BF % ES (d)” value ([1]; ITT analysis) was −0.25 and the “BM ES (d)” value ([1]; ITT analysis) was 0.08. For the same compound, the “FFM ES (d)” value ([1]; ITT analysis) was 0.26, the “FM ES (d)” value ([1]; ITT analysis) was −0.13 and the “BM (kg) Week 4” value [1, 3] was 63.9 ± 2.2 kg. For the same compound, the “BM (kg) Week 8” value [1, 4] was 63.8 ± 2.1 kg, the “BF % Δ (%)” value ([1]; ITT analysis) was −5% and the “BM Δ (%)” value ([1]; ITT analysis) was 1%. The “FFM Δ (%)” value ([1]; ITT analysis) was 3%, the “FM Δ (%)” value ([1]; ITT analysis) was −4% and the “BM (kg) Δ” value ([1]; ITT analysis) was 0.6 kg. The “FFM (kg) Δ” value ([1]; ITT analysis) was 1.2 kg, the “FM (kg) Δ” value ([1]; ITT analysis) was -0.7 kg and the “BF % Δ” value ([1]; ITT analysis) was −1.4%. The “Fat mass change versus baseline (in words)” value ([1]; PP analysis) was “significant reductions; also recorded: lower at W8 than baseline”, the “BF % Week 8” value ([1]; PP analysis, 4-component body fat percentage, week 8, mean ± SE) was 26.8 ± 2.6^b % and the “FM (kg) Week 4” value ([1]; PP analysis, week 4, mean ± SE) was 17.5 ± 2.5 kg. The “FM (kg) Week 8” value ([1]; PP analysis, week 8, mean ± SE) was 17.3 ± 2.3^b kg, the “FFM (kg) Week 4” value ([1]; PP analysis, week 4, mean ± SE) was 46.8 ± 1.8 kg and the “FFM (kg) Week 8” value ([1]; PP analysis, week 8, mean ± SE) was 46.4 ± 1.6 kg. The “BF % ES (d)” value ([1]; PP analysis) was −0.34, the “BM ES (d)” value ([1]; PP analysis) was 0.00 and the “FFM ES (d)” value ([1]; PP analysis) was 0.32. For the same compound, the “FM ES (d)” value ([1]; PP analysis) was −0.23, the “BM (kg) Week 4” value ([1]; PP analysis, week 4 of TRF + 3 g/d HMB + RT, mean ± SE) was 64.2 ± 3.1 kg and the “BM (kg) Week 8” value ([1]; PP analysis, week 8, mean ± SE) was 63.7 ± 3.0 kg. For the same compound, the “BF % Δ (%)” value ([1]; PP analysis) was −8%, the “BM Δ (%)” value ([1]; PP analysis) was 0% and the “FFM Δ (%)” value ([1]; PP analysis) was 3%. For the same compound, the “FM Δ (%)” value ([1]; PP analysis) was −7%, the “Reduction in BF % at W8 (significance)” value ([1]; PP analysis, week 8) was “statistically significant” and the “BM (kg) Δ” value ([1]; PP analysis) was 0.0 kg. For the same compound, the “FFM (kg) Δ” value ([1]; PP analysis) was 1.4 kg, the “FM (kg) Δ” value ([1]; PP analysis) was -1.4 kg and the “BF % Δ” value ([1]; PP analysis) was −2.3%. For the same compound, the “BF % 4-week effect size (d)” value ([1]; PP, TRF + 3 g/d Calcium-HMB + RT, n=7) was −0.31, the “BF % 4-week Δ-change” value ([1]; PP, TRF + 3 g/d Calcium-HMB + RT, n=7, baseline 29.1±2.5, p<0.05) was −2.1% and the MFQ score ([2]; ITT, Baseline, mean ± SE) was 1.4 ± 0.6. The PSQI score ([2]; ITT, Baseline, mean ± SE) was 3.1 ± 0.3, the TFEQ-CR score ([2]; ITT, Baseline, mean ± SE) was 17.8 ± 1 and the TFEQ-UE score ([2]; ITT, Baseline, mean ± SE) was 20.0 ± 1.2. It also gave an MFQ score ([2]; ITT, W 4, mean ± SE) of 0.7 ± 0.4, a PSQI score ([2]; ITT, W 4, mean ± SE) of 3.0 ± 0.3 and a TFEQ-CR score ([2]; ITT, W 4, mean ± SE) of 18.0 ± 1. The TFEQ-EE score ([2]; ITT, W 4, mean ± SE) was 4.9 ± 0.5, the TFEQ-UE score ([2]; ITT, W 4, mean ± SE) was 18.1 ± 1.4 and the MFQ score ([2]; ITT, W 8, mean ± SE) was 0.4 ± 0.4. It also gave a PSQI score ([2]; ITT, W 8, mean ± SE) of 2.7 ± 0.2, a TFEQ-CR score ([2]; ITT, W 8, mean ± SE) of 18.2 ± 1.1 and a TFEQ-EE score ([2]; ITT, W 8, mean ± SE) of 4.5 ± 0.6. For the same compound, the TFEQ-UE score ([2]; ITT, W 8, mean ± SE) was 16.3 ± 1.3, the “MFQ Δ” value ([2]; ITT) was −1.0 and the “MFQ Δ (%)” value ([2]; ITT) was −71%. The “PSQI Δ” value ([2]; ITT) was −0.4, the “PSQI Δ (%)” value ([2]; ITT) was −13% and the “TFEQ-CR Δ” value ([2]; ITT) was 0.4. The “TFEQ-CR Δ (%)” value ([2]; ITT) was 2%, the “TFEQ-EE Δ” value ([2]; ITT) was −0.9 and the “TFEQ-EE Δ (%)” value ([2]; ITT) was −17%. For the same compound, the “TFEQ-UE Δ” value ([2]; ITT) was −3.7, the “TFEQ-UE Δ (%)” value ([2]; ITT) was −19% and the “MFQ (Mood and Feelings Questionnaire) score” value ([2]; PP, Baseline, mean ± SE) was 1.1 ± 0.7. For the same compound, the “PSQI (Pittsburgh Sleep Quality Index) score” value ([2]; PP, Baseline, mean ± SE) was 3.1 ± 0.3, the “TFEQ-CR (Three-Factor Eating Questionnaire, Cognitive Restraint) score” value ([2]; PP, Baseline, mean ± SE) was 17.1 ± 1.2 and the “TFEQ-EE (Emotional Eating) score” value ([2]; PP, Baseline, mean ± SE) was 4.9 ± 0.6. For the same compound, the “TFEQ-UE (Uncontrolled Eating) score” value ([2]; PP, Baseline, mean ± SE) was 18.4 ± 1.3, the MFQ score ([2]; PP, W 4, mean ± SE) was 0.6 ± 0.5 and the PSQI score ([2]; PP, W 4, mean ± SE) was 2.7 ± 0.3. It also gave a TFEQ-CR score ([2]; PP, W 4, mean ± SE) of 18.3 ± 1.2, a TFEQ-EE score ([2]; PP, W 4, mean ± SE) of 4.4 ± 0.7 and a TFEQ-UE score ([2]; PP, W 4, mean ± SE) of 18.7 ± 2.0. It also gave an MFQ score ([2]; PP, W 8, mean ± SE) of 0.1 ± 0.5, a PSQI score ([2]; PP, W 8, mean ± SE) of 2.6 ± 0.3 and a TFEQ-CR score ([2]; PP, W 8, mean ± SE) of 18.8 ± 1.1. The TFEQ-EE score ([2]; PP, W 8, mean ± SE) was 3.7 ± 0.7, the TFEQ-UE score ([2]; PP, W 8, mean ± SE) was 15.5 ± 1.8 and the “MFQ Δ” value ([2]; PP) was −1.0. For the same compound, the “MFQ Δ (%)” value ([2]; PP) was −91%, the “PSQI Δ” value ([2]; PP) was −0.5 and the “PSQI Δ (%)” value ([2]; PP) was −16%. For the same compound, the “TFEQ-CR Δ” value ([2]; PP) was 1.7, the “TFEQ-CR Δ (%)” value ([2]; PP) was 10% and the “TFEQ-EE Δ” value ([2]; PP) was −1.2. For the same compound, the “TFEQ-EE Δ (%)” value ([2]; PP) was −24%, the “TFEQ-UE Δ” value ([2]; PP) was −2.9 and the “TFEQ-UE Δ (%)” value ([2]; PP) was −16%.
